# Earlier results, collected in patent publication US20040234631A1, “Composition comprising soy and use thereof in the provention and/or treatment of various diseases” (priority 2001, published 2004).
# Experiments:
# estrogenic effect = details: in vitro, reported by Knight
# blood vessels = details: very low concentration
Compound,relative estrogenic potency (estradiol = 100) (estrogenic effect),concentration causing dilation of blood vessels (blood vessels)
O=c1c(-c2ccc(O)cc2)coc2cc(O)ccc12 [daidzein],0.013,–
1-alkyl-2-acetyl analog of phosphatidyl choline [platelet-activating factor],–,0.1 nM
